Literature values as cited in PMC11096148 (EJNMMI Radiopharmacy and Chemistry, 2024).

Test system: ASGR
Set-up: method as in Stokmaier et al. [2009]
Details: higher than galactose; ref Stokmaier et al. [2009]; cited from earlier work

Structure (SMILES): CC(=O)N[C@H]1C(O)O[C@H](CO)[C@H](O)[C@@H]1O (mixture of isomers) [GalNAc, N-acetylgalactosamine]
- affinity for the ASGR relative to galactose: 10 times
